Test results taken from the NIST ThermoML archive (doi:10.1021/je034222z).

OCCC(F)(F)C(F)(F)C(F)(F)C(F)(F)C(F)(F)C(F)(F)C(F)(F)C(F)(F)F [1-decanol, 3,3,4,4,5,5,6,6,7,7,8,8,9,9,-heptadecafluoro]
Conditions	vapor or sublimation pressure [kPa]
294.1 K, Crystal, Transpiration method	0.003

Conditions	Normal melting temperature [°C]	vapor or sublimation pressure [kPa]
357.15 K, Liquid	–	0.708
369.15 K, Liquid	–	1.465
380.15 K, Liquid	–	2.774
392.15 K, Liquid	–	4.91
397.15 K, Liquid	–	5.1
403.15 K, Liquid	–	8.284
415.15 K, Liquid	–	13.8
421.15 K, Liquid	–	15.27
428.15 K, Liquid	–	22.75
430.15 K, Liquid	–	23.4
439.15 K, Liquid	–	34.45
440.15 K, Liquid	–	32
445.15 K, Liquid	–	35.67
452.15 K, Liquid	–	51.67
463.15 K, Liquid	–	72.34
468.15 K, Liquid	–	75.75
474.15 K, Liquid	–	100.61
498.15 K, Liquid	–	162.1
Crystal, visual observation	49.0	–
